Data published in US20030065030A1, “Autonomic controlling agents and health drinks and foods” (priority 2001, published 2003).
Where two headings read alike, the source gives them in different places.

Experiments:
[1] = system: vagal nerve celiac branches; test: efferent neural activity of the vagal nerve celiac branches after intravenous carnosine; type: in vivo, rat; conditions: 100 ng intravenous
Protocol: (§1) According to the method of Niijima (Neurobiology 3:299-307, 1995), the effect of carnosine on the autonomic nerve activity was investigated. Wistar male rats, weighing about 300 g, that had been kept in an environment of room temperature (24° C.) and free access to the feed were fasted (with free access to water) 12 hours before the start of the experiment. Rats were subjected to abdominal section under urethane anesthesia (1 g/kg body weight, intraperitoneal administration), neurofilaments were isolated from central cut ends of a sympathetic nerve branch or a vagal nerve branch, and the efferent neural activity was recorded via an AC amplifier. The neural activity was observed using an oscilloscope and was recorded into magnetic tape. At the same time, the time course of the neural activity was recorded with a pen-type recorder via a rate meter with a reset time set at 5 seconds.
(§2) Carnosine (100 ng or 1,000 ng dissolved in 0.1 ml physiological saline) was intravenously administered. As the control, physiological saline (0.1 ml) was alone administered intravenously.
(§3) The effect of carnosine administration was calculated as the neural activity count (%) after carnosine administration relative to neural activity count (mean value of 10 activity counts during 5 minutes) before administration set at 100. Five rats were used for each experiment. Data were tested with ANOVA (p<0.05) and were expressed as mean +/− standard error.
In order to study the effect on the neural activity of the vagal nerve, the efferent neural activity of the vagal nerve celiac branches was recorded.

[2] = system: sympathetic nerve hepatic branches; test: efferent neural activity of the sympathetic nerve hepatic branches after intravenous carnosine; type: in vivo, rat; conditions: 100 ng intravenous
Protocol: as §1, §2, §3

[3] = system: sympathetic nerve renal branches; test: efferent neural activity of the sympathetic nerve renal branches after intravenous carnosine; type: in vivo, rat; conditions: 1,000 ng intravenous
Protocol: as §1, §2, §3

STZ diabetic rats = test: anti-hyperglycemia in the STZ diabetic rats undergoing the oral glucose tolerance test; type: in vivo, rat
Protocol: Wistar male rats (initial weight, about 250 g) were used. They were housed in a room illuminated with an incandescent light of 80 luxes on the average for 12 hours with free access to feed, and adapted to the environment at least 10 days. Three days before the experiment, rats under anesthesia with pentobarbital (35 mg/kg body weight, intraperitoneal administration) received the insertion of a cardiac catheter comprising a silastic tubing (Dow Corning, Midland, Mich.) and a polyethylene tubing (Clay Adams, Parsippany, N.J.) into the right atrium and a polyethylene tubing into the right lateral cerebral ventricle (LCV).
Then, the STZ (streptozotocin) diabetic rats were created according to the report by Portha et al. (Diabetes 30:64-69, 1981). Streptozotocin (STZ, manufactured by Sigma) dissolved in 0.05 M citric acid solution (pH 4.5) at a concentration of […] was intraperitoneally administered at 60 mg/kg body weight. To the STZ diabetic rats thus created, an aqueous solution of glucose dissolved at 0.5 g/ml was orally administered at 1 ml (0.5 g) per animal (oral glucose load). Simultaneously with the glucose load, carnosine dissolved in physiological saline was administered to the rats intracranially (0.01 ml) or intraperitoneally (0.1 ml).
The oral administration employed a sonde, and the intracranially administration was performed via a LVC polyethylene tube and the intraperitoneal administration employed an injection syringe and a needle. The control rats received physiological saline instead of carnosine, and an artificial cerebrospinal fluid instead of 2DG, each at the same amount. Before and at 15, 30, 60, and 90 minutes after the oral administration of glucose, 300 μl of blood was taken via the cardiac catheter and the glucose concentrations in the plasma (blood glucose levels) were determined. The glucose concentration in the plasma at the time of carnosine administration was calculated as a ratio (%) relative to the plasma glucose concentration before glucose administration set at 100. Four or five rats were used in the experiment. Data were tested with ANOVA (p<0.05) and were expressed as mean +/− standard error.

[4] = system: DOCA-salt hypertensive rats; test: anti-hypertensive effect in DOCA-salt hypertensive rats (systolic blood pressure); type: in vivo, rat
Protocol: Sprague-Dawley male rats (6-week old) were used. The animals were anesthetized by the intraperitoneal administration of pentobarbital at 40 mg/kg body weight, and the right flank was dissected to remove the right kidney. After the surgical operation and a one week recovery period, the animals were divided into the pseudosurgery (sham) group and the deoxycorticosterone acetate (DOCA) salt group. Each group was further divided into the normal diet group, the 0.001% carnosine-containing diet group, and the 0.0001% carnosine-containing group.
The rats of the DOCA-salt group received the subcutaneous injection of DOCA suspended in corn oil at 15 mg/kg body weight twice per week, and tap water supplemented with 1% sodium chloride was given as the drinking water. The sham group received neither DOCA nor sodium chloride. The systolic blood pressure was monitored once per week for five weeks using the tail cuff and the pneumatic pulse transducer (BP-98A, Softron). The experiment employed 9 rats in the DOCA group and 6 rats in the sham group. Data were tested with ANOVA (p<0.05) and were expressed as mean +/− standard error.

[5] = cited from earlier work
[6] = 30 minutes after administration
[7] = 60 minutes after administration
[8] = 90 minutes after administration

NCCC(=O)N[C@@H](Cc1cnc[nH]1)C(=O)O [carnosine, β-alanyl-L-histidine]
promotion rate of efferent neural activity of the vagal nerve celiac branches [1, 6]: 15.4%
promotion rate of efferent neural activity of the vagal nerve celiac branches [1, 7]: 28.6%
promotion rate of efferent neural activity of the vagal nerve celiac branches [1, 8]: 48.7%
suppression rate of efferent neural activity of the sympathetic nerve hepatic branches [2, 6]: 20.1%
suppression rate of efferent neural activity of the sympathetic nerve hepatic branches [2, 7]: 25.9%
suppression rate of efferent neural activity of the sympathetic nerve hepatic branches [2, 8]: 32.0%
suppression rate of efferent neural activity of the sympathetic nerve renal branches [3, 6]: 29.7%
suppression rate of efferent neural activity of the sympathetic nerve renal branches [3, 7]: 32.8%
suppression rate of efferent neural activity of the sympathetic nerve renal branches [3, 8]: 28.0%
suppression rate of increase in blood glucose by oral glucose load (STZ diabetic rats; 10 ng intracranial, 15 minutes): 14.5%
suppression rate of increase in blood glucose by oral glucose load (STZ diabetic rats; 10 ng intracranial, 30 minutes): 17.3%
suppression rate of increase in blood glucose by oral glucose load (STZ diabetic rats; 10 ng intracranial, 60 minutes): 14.7%
suppression rate of increase in blood glucose by oral glucose load (STZ diabetic rats; 10 ng intracranial, 90 minutes): 11.4%
suppression rate of increase in blood glucose by oral glucose load (STZ diabetic rats; 100 ng intraperitoneal, 60 minutes): 14.3%
suppression rate of increase in blood glucose by oral glucose load (STZ diabetic rats; 100 ng intraperitoneal, 90 minutes): 12.4%
suppression rate of increase in systolic blood pressure ([4]; 0.0001% carnosine-containing diet, week five): 17.8%
suppression rate of increase in systolic blood pressure ([4]; 0.0001% carnosine-containing diet, week four): 22.1%
suppression rate of increase in systolic blood pressure ([4]; 0.0001% carnosine-containing diet, week one): 9.6%
suppression rate of increase in systolic blood pressure ([4]; 0.0001% carnosine-containing diet, week three): 15.0%
suppression rate of increase in systolic blood pressure ([4]; 0.0001% carnosine-containing diet, week two): 10.2%
suppression rate of increase in systolic blood pressure ([4]; 0.001% carnosine-containing diet, week five): 25.5%
suppression rate of increase in systolic blood pressure ([4]; 0.001% carnosine-containing diet, week four): 21.5%
suppression rate of increase in systolic blood pressure ([4]; 0.001% carnosine-containing diet, week one): 6.2%
suppression rate of increase in systolic blood pressure ([4]; 0.001% carnosine-containing diet, week three): 19.6%
suppression rate of increase in systolic blood pressure ([4]; 0.001% carnosine-containing diet, week two): 12.4%
absorptivity relative to carnosine alone ([5]; administered to the jejunum of mice in combination with L-alanine): more than two-fold higher
absorptivity relative to carnosine alone ([5]; administered to the jejunum of mice with β-alanine): more than tripled
oral absorptivity ([5]; mice): 30-70%
